system: 3D multicellular tumor spheroids (4T1 cells and M2 macrophages derived from RAW264.7 cells); experiment: 3D multicellular tumor spheroids (MCTs) growth; assay type: cell-based; conditions: single drug 5 μM; combination 2.5 μM plus 2.5 μM; 14 days
Procedure: 3D multicellular tumor spheroids (MICs), 4T1 cells and M2 macrophages derived from RAW264.7 cells were mixed in the ratio of 7:3 and then seeded into an ultralow-attachment 96 well plate (Corning) at a density of 5,000 cells/well and cultured for 30 h to form the tumor spheroids. These tumor spheroids were separately incubated with 300 μL complete medium supplemented with PTX ([…]), gemcitabine (5 μM), doxorubicin (5 μM), and IPI-549 (5 μM) as well as the combination of IPI-549 and PTX (2.5 μM+[…]), IPI-549 and gemcitabine (2.5 μM+2.5 μM), and IPI-549 and doxorubicin (2.5 μM+2.5 μM) for 14 days. The volumes ([major axis]×[minor axis]^2/2) of the MTCs were monitored every other day using an Olympus IX83 motorized inverted microscope with cellSens Dimension software (Olympus), and images were captured using a CellInsight CX5 High-Content Screening (HCS) Platform (Thermo Fisher) at 4× magnification.

Row | SMILES | inhibition of 3D MCTs growth
1 | C[C@H](NC(=O)c1c(N)nn2cccnc12)c1cc2cccc(C#Cc3cnn(C)c3)c2c(=O)n1-c1ccccc1 [IPI-549] | limited inhibition of 3D MCTs growth
2 | CC(=O)O[C@H]1C(=O)[C@@]2(C)[C@H]([C@H](OC(=O)c3ccccc3)[C@]3(O)C[C@H](OC(=O)[C@H](O)[C@@H](NC(=O)c4ccccc4)c4ccccc4)C(C)=C1C3(C)C)[C@]1(OC(C)=O)CO[C@@H]1C[C@@H]2O [PTX, paclitaxel] | limited inhibition of 3D MCTs growth
3 | COc1cccc2c1C(=O)c1c(O)c3c(c(O)c1C2=O)C[C@@](O)(C(=O)CO)C[C@@H]3O[C@H]1C[C@H](N)[C@H](O)[C@H](C)O1 [doxorubicin] | limited inhibition of 3D MCTs growth
4 | Nc1ccn([C@@H]2O[C@H](CO)[C@@H](O)C2(F)F)c(=O)n1 [gemcitabine] | limited inhibition of 3D MCTs growth
